Experimental data taken from publication PMC5008386, “Oridonin, a novel lysine acetyltransferases inhibitor, inhibits proliferation and induces apoptosis in gastric cancer cells through p53- and caspase-3-mediated mechanisms” (Oncotarget, 2016).

Molecular target: T1, P300 (Homo sapiens, UniProt Q09472)
T1 construct: gene EP300
Test: fluorogenic P300 acetyltransferase assay; also [3H]-acetyl CoA autoradiography and BLI (Octet RED96) with biotinylated oridonin
Assay type: biochemical

T1 sequence (Q09472 2-2414): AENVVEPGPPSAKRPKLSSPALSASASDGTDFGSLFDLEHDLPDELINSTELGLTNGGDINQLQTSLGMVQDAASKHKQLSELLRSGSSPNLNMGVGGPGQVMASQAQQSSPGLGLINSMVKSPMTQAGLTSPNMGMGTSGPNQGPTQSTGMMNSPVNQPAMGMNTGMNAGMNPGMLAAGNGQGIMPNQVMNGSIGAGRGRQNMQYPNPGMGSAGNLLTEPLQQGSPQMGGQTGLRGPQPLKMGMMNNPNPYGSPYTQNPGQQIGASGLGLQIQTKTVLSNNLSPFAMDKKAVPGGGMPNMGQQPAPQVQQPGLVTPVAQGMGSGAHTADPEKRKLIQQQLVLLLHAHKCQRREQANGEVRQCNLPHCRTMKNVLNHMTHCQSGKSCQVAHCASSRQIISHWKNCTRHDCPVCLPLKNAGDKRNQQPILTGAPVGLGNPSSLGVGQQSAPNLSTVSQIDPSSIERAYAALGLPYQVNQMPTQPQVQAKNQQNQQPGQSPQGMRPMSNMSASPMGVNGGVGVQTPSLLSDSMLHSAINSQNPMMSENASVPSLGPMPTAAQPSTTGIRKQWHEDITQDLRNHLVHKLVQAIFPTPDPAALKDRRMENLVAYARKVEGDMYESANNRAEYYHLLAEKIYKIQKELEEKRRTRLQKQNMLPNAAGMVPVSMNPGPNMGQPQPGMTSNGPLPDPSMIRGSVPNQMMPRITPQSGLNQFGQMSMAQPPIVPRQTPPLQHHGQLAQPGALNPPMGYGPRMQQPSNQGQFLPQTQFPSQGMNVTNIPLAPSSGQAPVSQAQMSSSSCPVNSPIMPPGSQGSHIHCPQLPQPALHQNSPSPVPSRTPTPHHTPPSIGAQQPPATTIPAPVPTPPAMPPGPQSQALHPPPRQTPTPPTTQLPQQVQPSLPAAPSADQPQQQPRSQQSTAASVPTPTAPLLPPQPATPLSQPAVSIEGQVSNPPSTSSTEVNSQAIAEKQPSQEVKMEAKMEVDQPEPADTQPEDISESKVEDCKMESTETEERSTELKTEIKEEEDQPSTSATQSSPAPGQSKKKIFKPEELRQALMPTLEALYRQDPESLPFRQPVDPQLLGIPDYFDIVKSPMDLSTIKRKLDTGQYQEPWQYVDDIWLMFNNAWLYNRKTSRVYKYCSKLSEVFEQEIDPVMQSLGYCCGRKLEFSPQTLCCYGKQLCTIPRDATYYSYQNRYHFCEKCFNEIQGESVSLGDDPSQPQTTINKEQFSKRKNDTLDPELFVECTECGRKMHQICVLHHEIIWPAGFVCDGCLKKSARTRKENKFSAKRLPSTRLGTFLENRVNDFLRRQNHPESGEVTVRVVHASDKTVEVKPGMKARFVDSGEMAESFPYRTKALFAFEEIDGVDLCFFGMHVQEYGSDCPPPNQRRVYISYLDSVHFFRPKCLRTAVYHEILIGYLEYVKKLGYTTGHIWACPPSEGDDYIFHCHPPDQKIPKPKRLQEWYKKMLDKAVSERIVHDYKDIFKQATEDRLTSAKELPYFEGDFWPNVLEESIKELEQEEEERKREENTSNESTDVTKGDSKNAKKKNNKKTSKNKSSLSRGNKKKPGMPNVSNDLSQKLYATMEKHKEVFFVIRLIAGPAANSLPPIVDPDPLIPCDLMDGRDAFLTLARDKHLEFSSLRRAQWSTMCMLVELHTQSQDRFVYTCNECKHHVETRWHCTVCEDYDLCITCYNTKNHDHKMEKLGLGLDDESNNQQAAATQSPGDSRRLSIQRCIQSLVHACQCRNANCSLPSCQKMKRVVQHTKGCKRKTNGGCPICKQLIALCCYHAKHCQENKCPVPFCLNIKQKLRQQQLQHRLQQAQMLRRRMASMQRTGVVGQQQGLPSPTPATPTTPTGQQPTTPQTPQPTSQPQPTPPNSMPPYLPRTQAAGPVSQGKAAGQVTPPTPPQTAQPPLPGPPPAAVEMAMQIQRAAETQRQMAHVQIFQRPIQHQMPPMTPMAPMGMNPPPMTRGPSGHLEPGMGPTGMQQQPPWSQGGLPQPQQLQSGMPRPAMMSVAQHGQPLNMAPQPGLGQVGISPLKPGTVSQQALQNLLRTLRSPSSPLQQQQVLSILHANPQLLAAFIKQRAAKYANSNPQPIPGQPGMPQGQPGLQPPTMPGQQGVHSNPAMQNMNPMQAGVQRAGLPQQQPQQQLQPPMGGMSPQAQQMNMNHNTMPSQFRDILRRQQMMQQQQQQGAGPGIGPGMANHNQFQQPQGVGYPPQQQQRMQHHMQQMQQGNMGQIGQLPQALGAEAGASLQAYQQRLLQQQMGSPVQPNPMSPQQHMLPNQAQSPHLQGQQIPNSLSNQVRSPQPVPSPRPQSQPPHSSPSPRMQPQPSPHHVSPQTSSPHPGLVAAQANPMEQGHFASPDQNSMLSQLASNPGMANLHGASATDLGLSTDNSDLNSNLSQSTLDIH

C=C1C(=O)[C@]23[C@H](O)[C@H]1CC[C@H]2[C@@]12CO[C@]3(O)[C@@H](O)[C@@H]1C(C)(C)CC[C@@H]2O [oridonin]
IC50: ~5 µM
